Results published in ChEMBL document CHEMBL3399952, “Design and synthesis of novel anti-tuberculosis agents from the celecoxib pharmacophore” (Bioorg Med Chem, 2015).
The source made the active and inactive calls. No cut-off for these calls is given here.

Experiments:
[1] = tested on: Mycobacterium tuberculosis; assay: Antimycobacterial activity against Mycobacterium tuberculosis H37Rv expressing Lux assessed as reduction in growth measured at 5 uM after 3 weeks by bioluminescence assay; format: functional, organism-based
[2] = tested on: Mycobacterium tuberculosis; assay: Antimycobacterial activity against Mycobacterium tuberculosis H37Rv expressing Lux infected in human macrophages assessed as reduction in growth measured at 5 to 20 uM after 3 weeks by bioluminescence assay; format: functional, organism-based
[3] = Cytotoxicity against human macrophages assessed as cell death at 20 uM by TMRE-based assay; set-up: species or system Macrophage; details: read-out: INH
[4] = tested on: Mycobacterium tuberculosis; assay: Antimycobacterial activity against Mycobacterium tuberculosis H37Rv expressing Lux infected in human macrophages assessed as reduction in growth measured at <= 2.5 uM after 72 hrs by bioluminescence assay; format: functional, organism-based
[5] = tested on: Mycobacterium tuberculosis; assay: Antimycobacterial activity against Mycobacterium tuberculosis H37Rv assessed as reduction in growth measured at <= 2.5 uM after 72 hrs by CFU assay; format: functional
[6] = tested on: Mycobacterium tuberculosis; assay: Antimycobacterial activity against Mycobacterium tuberculosis H37Rv expressing Lux assessed as reduction in growth measured after 3 weeks by bioluminescence assay; format: functional, organism-based; details: 504 h
[7] = Cytotoxicity against human macrophages assessed as cell death at 1.25 to 40 uM after 48 hrs by TMRE-based assay; details: macrophage
[8] = tested on: Mycobacterium tuberculosis; assay: Antimycobacterial activity against Mycobacterium tuberculosis H37Rv expressing Lux infected in human macrophages assessed as […] reduction in growth measured at 5 uM after 48 hrs by bioluminescence assay; format: functional, organism-based
[9] = tested on: Mycobacterium tuberculosis; assay: Antimycobacterial activity against Mycobacterium tuberculosis H37Rv assessed as reduction in growth measured after 48 hrs by CFU assay; format: functional
[10] = Cytotoxicity against human macrophages assessed as cell death at > 10 uM by TMRE-based assay; details: macrophage

Row | SMILES | inhibition [4] | fold change (FC) [5] | IC50 [6] [nM] | Activity [7] | other results
1 | CNC(=O)CCc1cc(-c2ccc(-c3ccc(C(F)(F)F)cc3)cc2)n(-c2ccc(NS(=O)(=O)NC(=O)OC(C)(C)C)cc2)n1 |  |  |  |  | inhibition [1]: Active; inhibition [2]: Active; cytotoxicity at 20 µM [3]: 26%
2 | CNC(=O)CCc1cc(-c2ccc(-c3ccc(C(F)(F)F)cc3)cc2)n(-c2ccc(NC(=O)c3cn(C)cn3)cc2)n1 | Active | >1 | 180 | Non-toxic | 
3 | CNC(=O)CCc1cc(-c2ccc(-c3ccc(C(F)(F)F)cc3)cc2)n(-c2ccc(NC(=O)c3ccnc(C)c3)cc2)n1 | Active | >1 | 290 | Non-toxic | inhibition [8]: Active
4 | CNC(=O)CCc1cc(-c2ccc(-c3ccc(C(F)(F)F)cc3)cc2)n(-c2ccc(NC(=O)c3ccncc3Cl)cc2)n1 | Active | >1 | 430 | Non-toxic | 
5 | NNC(=O)c1ccncc1 [ISONIAZID] |  |  | 330 |  | inhibition [1]: Active
6 | NS(=O)(=O)Nc1ccc(-n2nc(C(F)(F)F)cc2-c2ccc3c(ccc4ccccc43)c2)cc1 |  |  |  |  | fold change (FC) [9]: 1
7 | CNC(=O)CCc1cc(-c2ccc(-c3ccc(C(F)(F)F)cc3)cc2)nn1-c1ccc(NC(=O)c2ccncc2)cc1 | Active | >1 | 270 | Non-toxic | inhibition [8]: Active
8 | COc1nc2ccc(Br)cc2cc1[C@@H](c1ccccc1)[C@@](O)(CCN(C)C)c1cccc2ccccc12 [BEDAQUILINE] |  |  | 50 |  | 
9 | O=[N+]([O-])c1cn2c(n1)OC[C@@H](OCc1ccc(OC(F)(F)F)cc1)C2 [PRETOMANID] |  |  | 400 |  | 
10 | CNC(=O)CCc1cc(-c2ccc(-c3ccc(C(F)(F)F)cc3)cc2)n(-c2ccc(NC(=O)c3ccc(N)cc3)cc2)n1 | Active | >1 | 320 |  | Activity [10]: Toxic
11 | CNC(=O)CCc1cc(-c2ccc(-c3ccc(C(F)(F)F)cc3)cc2)n(-c2ccc(NS(=O)(=O)N(C)C)cc2)n1 |  |  | 2200 |  | inhibition [1]: Active; inhibition [2]: Active; cytotoxicity at 20 µM [3]: 4%
12 | CNC(=O)CCc1cc(-c2ccc(-c3ccc(C(F)(F)F)cc3)cc2)n(-c2ccc(NC(=O)c3ccncc3)cc2)n1 | Active | >1 | 480 | Non-toxic | inhibition [8]: Active
13 | CCc1nc2ccc(Cl)cn2c1C(=O)NCc1ccc(N2CCC(c3ccc(OC(F)(F)F)cc3)CC2)cc1 [TELACEBEC] |  |  | < 3 |  | 
